In patent publication US8158088B2, “Extractant compositions for co-extracting cesium and strontium, a method of separating cesium and strontium from an aqueous feed, and calixarene compounds” (Battelle Energy Alliance, LLC, priority 2008, dated 2012):

Tests used:
Assay type in all cases: physicochemical
[1] = Solvent stability: strontium distribution ratios as a function of contact time with 1.5 M HNO3
Procedure: (§1) The stability of the mixed extractant solvents prepared using dialkyloxycalix[4]arenebenzocrown-6 compounds (MC-8, MC-8B, MC-10, MC-10B, MC-12, or MC-12B) relative to BOBCalixC6 in the FPEX I process solvent was determined. Samples were prepared using each of the dialkyloxycalix[4]arenebenzocrown-6 compounds and contacted with 1.5 M HNO3. The samples included 0.007 M of the respective dialkyloxycalix[4]arenebenzo-crown-6 compound (MC-8, MC-8B, MC-10, MC-10B, MC-12, or MC-12B), 0.075 M DtBuCH18C6, 0.75 M Cs-7SB modifier, and 0.003 M TOA in ISOPAR® L. The stability of the dialkyloxycalix[4]arene-benzocrown-6 based solvents was evaluated by measuring the cesium and strontium distribution ratios as a function of contact time. These cesium and strontium distribution ratios for the mixed extractant solvents are presented in Table 9 and Table 10, respectively, along with the cesium and strontium distribution ratios for the FPEX I process solvent. The symbol “-” is used in Tables 9 and 10 to indicate no data was collected.
(§2) This degradation is likely due to chemical attack or nitration of the BOBCalixC6 in the FPEX I process solvent. […] However, it is difficult to compare the relative extents of degradation. In order to compare the different extractants, the distribution ratio data presented in Tables 9 and 10 were normalized to the values obtained at t=0 days contact. The normalized cesium and strontium distribution ratios for the FPEX I process solvent and the mixed extractant solvents as a function of contact time are presented in FIGS. 2 and 3, respectively.

[2] = Third phase formation on contact with nitric acid
[3] = Strontium distribution ratio (DSr), equilibrium batch contact of mixed extractant solvent with nitric acid feed; conditions: for Strontium distribution ratio, contact E1: first forward extraction, 1.5 M HNO3 feed simulant, 0.007 M calixarene, 0.075 M DtBuCH18C6, 0.75 M Cs-7SB, 0.003 M TOA in ISOPAR L; for Strontium distribution ratio, contact E1 / Strontium distribution ratio, contact E2 / Strontium distribution ratio, contact E3: 25 °C; for Strontium distribution ratio, contact St1: first strip with 0.01 M HNO3, 35 °C; for Strontium distribution ratio, contact St1 / Strontium distribution ratio, contact E2 / Strontium distribution ratio, contact St2 / Strontium distribution ratio, contact E3: 0.007 M calixarene solvent; for Strontium distribution ratio, contact E2: second forward extraction; for Strontium distribution ratio, contact E2 / Strontium distribution ratio, contact E3: 1.5 M HNO3 feed; for Strontium distribution ratio, contact St2: second strip with 0.01 M HNO3, 35 °C; for Strontium distribution ratio, contact E3: third forward extraction
[4] = Cesium distribution ratio (DCs), equilibrium batch contact of mixed extractant solvent with nitric acid feed; conditions: for Cesium distribution ratio, contact E1: first forward extraction, 1.5 M HNO3 feed simulant, 0.075 M DtBuCH18C6, 0.75 M Cs-7SB, 0.003 M TOA in ISOPAR L; for Cesium distribution ratio, contact E1 / Cesium distribution ratio, contact E2 / Cesium distribution ratio, contact E3: 25 °C; for Cesium distribution ratio, contact St1: first strip with 0.01 M HNO3, 35 °C; for Cesium distribution ratio, contact St1 / Cesium distribution ratio, contact E2 / Cesium distribution ratio, contact St2 / Cesium distribution ratio, contact E3: 0.007 M calixarene solvent; for Cesium distribution ratio, contact E2: second forward extraction; for Cesium distribution ratio, contact St2: second strip with 0.01 M HNO3, 35 °C; for Cesium distribution ratio, contact E3: third forward extraction
From the text: The distribution of cesium and strontium between the first organic phase (the mixed extractant solvent including the dialkyloxycalix[4]arenebenzocrown-6 compound) and the first aqueous phase (aqueous feed) may be determined by conventional techniques. The distribution ratio for strontium (“DSr”) may be calculated as the ratio of organic phase activity to the aqueous phase activity at equilibrium. High values for the DSr indicate that the strontium is present predominantly in the organic phase while low values for the DSr indicate that the strontium is present predominantly in the aqueous phase. Similarly, the distribution ratio for cesium (“DCs”) may be calculated as the ratio of organic phase activity to the aqueous phase activity at equilibrium. High values for the DCs indicate that the cesium is present predominantly in the organic phase while low values for the DCs indicate that the cesium is present predominantly in the aqueous phase.
Distribution ratios (DM=[M]org/[M]aq) were measured by equilibrium batch contacts between the organic and aqueous phases at an organic-to-aqueous phase ratio (O/A) of unity (O/A=1). All distribution ratio measurements were conducted in a temperature controlled water bath at 25±1° C. The aqueous phase was of the appropriate HNO3 concentration, to which trace quantities (typically, less than 10^−7 M each) of the major radionuclides of interest (^137Cs, ^85Sr, ^154Eu, or ^241Am) were added. The organic and aqueous phases were contacted by vortex mixing for 1 minute. All batch contact experiments were performed at ambient temperature (from approximately 20° C. to approximately 25° C.) unless otherwise noted. Following extraction, the samples were centrifuged for 1 minute and the organic and aqueous phases separated by pipet or centrifugation. The distribution ratios (DSr, or DCs) were calculated as the ratio of the appropriate specific activities in the organic and aqueous phases as determined by γ-ray counting (gamma spectroscopy). The counting time was selected to provide less than approximately 1% statistical uncertainty.
(MC-8, MC-8B, MC-10, MC-10B, MC-12, or MC-12B), 0.075 M DtBuCH18C6, 0.75 M Cs-7SB modifier, and 0.003 M TOA in ISOPAR® L were evaluated for their respective abilities to simultaneously extract cesium and strontium from the aqueous feed simulant composition described in Table 2. The cesium and strontium distribution ratios of the mixed extraction solvents were compared to those of the FPEX I process solvent. The cesium extraction performance and strontium extraction performance of each of the mixed extractant solvents was determined using the batch contact flowsheet presented in FIG. 1, where “E1,” “E2,” and “E3” refer to three forward extraction acts: a first extraction act, a second extraction act, and a third extraction act, respectively, and “St1” and “St2” refer to two backward extraction acts: a first strip act and a second strip act, respectively. […] The aqueous feed 2 and the mixed extractant solvent 4 were combined in a vessel 6 to conduct the extraction. Two phases were formed during the extraction: the first organic phase and the first aqueous phase, with the cesium and strontium substantially distributed in the first organic phase.
The cesium and strontium distribution ratios for the mixed extractant solvents 4 were calculated for the first organic phase and are reported in Tables 3 and 4, respectively, as E1, along with the cesium and strontium distribution ratios for the FPEX I process solvent. The cesium and strontium were stripped from the first (and subsequent) organic phase to recover these radionuclides. For the strips or backward extractions, the first (and subsequent) organic phase was contacted with dilute acidic solution 8, which was 0.01 M HNO3. […]

[5] = Solvent stability: cesium distribution ratios as a function of contact time with 1.5 M HNO3
Procedure: as §1, §2

[6] = contact time 0 days with 1.5 M HNO3, 0.007 M calixarene, 0.075 M DtBuCH18C6, 0.75 M Cs-7SB, 0.003 M TOA in ISOPAR L
[7] = contact time 34 days with 1.5 M HNO3
[8] = contact time 70 days with 1.5 M HNO3
[9] = contact time 278 days with 1.5 M HNO3
[10] = contact time 36 days with 1.5 M HNO3
[11] = contact time 244 days with 1.5 M HNO3

Molecule | Strontium distribution ratio, contact E1 [3] | Strontium distribution ratio, contact St1 [3] | Strontium distribution ratio, contact E2 [3] | Strontium distribution ratio, contact St2 [3] | Strontium distribution ratio, contact E3 [3] | Strontium distribution ratio as a function of contact time [1, 6] | Cesium distribution ratio, contact E1 ([4]; 0.007 M calixarene) | Cesium distribution ratio, contact St1 [4] | Cesium distribution ratio, contact E2 ([4]; 1.5 M HNO3 feed) | Cesium distribution ratio, contact St2 [4] | Cesium distribution ratio, contact E3 ([4]; 1.5 M HNO3 feed) | Cesium distribution ratio as a function of contact time [5, 6] | Cesium distribution ratio as a function of contact time [5, 9] | further results
4′,4′,(5′)-di-(t-butyldicyclohexano)-18-crown-6 [DtBuCH18C6, reference compound] | – | – | – | – | – | – | – | – | – | – | – | – | – | stability (normalized strontium distribution ratios, FIG. 3) ([1]; prolonged contact with HNO3): subject to degradation following prolonged contact with HNO3
CC(C)(C)CC(C)(C)c1ccc2c(c1)OCCOCCOc1c3cccc1Cc1cccc4c1OCCOCCOc1cc(C(C)(C)CC(C)(C)C)ccc1OCCOCCOc1c(cccc1C3)Cc1cccc(c1OCCOCCO2)C4 [BOBCalixC6, calix[4]arene-bis(tert-octylbenzo)-crown-6, reference compound] | – | – | – | – | – | – | – | – | – | – | – | – | – | third phase formation ([2]; 5 M HNO3, 0.025 M BOBCalixC6, 0.075 DtBuCH18C6, 0.003 M TOA, 0.75 M EXXAL 12 in ISOPAR L): Third phase formation was observed
CCC(C)c1ccc(OCC(O)COCC(F)(F)C(F)F)cc1 (centres unmarked) [Cs-7SB, 1-(2,2,3,3-tetrafluoropropoxy)-3-(4-sec-butylphenoxy)-2-propanol, reference compound] | – | – | – | – | – | – | – | – | – | – | – | – | – | nitric acid concentration above which a third phase forms ([2]; mixed extractant solvent with Cs-7SB as modifier added to aqueous feed): > 1.5 M
CCCCC(CC)COc1c2cccc1Cc1cccc3c1OCCOCCOc1ccccc1OCCOCCOc1c(cccc1Cc1cccc(c1OC[C@H](CC)CCCC)C3)C2 (some centres unmarked) [MC-8B, 1,3-alternate-25,27-di(2-ethylhexyl-1-oxy)calix[4]arenebenzocrown-6] | 8.9 | 0.06 | 8.3 | 0.01 | 8.1 | 8.9 | 1.4 | 0.2 | 1.1 | 0.1 | 1.0 | 1.36 | 2.8 | Strontium distribution ratio as a function of contact time [1, 7]: 7.2; Strontium distribution ratio as a function of contact time [1, 8]: 9.3; Strontium distribution ratio as a function of contact time [1, 9]: 7.6; cesium distribution ratios, comparison in words ([4]; 0.007 M calixarene, 1.5 M HNO3 feed): lowest distribution ratios; Cesium distribution ratio as a function of contact time [5, 7]: 0.8; Cesium distribution ratio as a function of contact time [5, 8]: 1.5; stability toward hydrolytic degradation (normalized cesium distribution ratios, FIG. 2) ([5]; prolonged contact with 1.5 M HNO3): most resistant toward hydrolytic degradation
CCCCCCCCCCOc1c2cccc1Cc1cccc3c1OCCOCCOc1ccccc1OCCOCCOc1c(cccc1Cc1cccc(c1OCCCCCCCCCC)C3)C2 [MC-10, 1,3-alternate-25,27-di(decyloxy)calix[4]arenebenzocrown-6] | 9.5 | 0.06 | 8.4 | 0.01 | 8.3 | 9.5 | 3.7 | 0.5 | 2.0 | 0.2 | 1.6 | 3.7 | 1.1 | Strontium distribution ratio as a function of contact time [1, 7]: 7.7; Strontium distribution ratio as a function of contact time [1, 8]: 9.0; Strontium distribution ratio as a function of contact time [1, 9]: 7.7; Cesium distribution ratio as a function of contact time [5, 7]: 3.0; Cesium distribution ratio as a function of contact time [5, 8]: 3.5
CCCCCCCCCCCCOc1c2cccc1Cc1cccc3c1OCCOCCOc1ccccc1OCCOCCOc1c(cccc1Cc1cccc(c1OCCCCCCCCCCCC)C3)C2 [MC-12, 1,3-alternate-25,27-di(dodecyloxy)calix[4]arenebenzocrown-6] | 7.7 | 0.04 | 7.5 | 0.01 | 7.0 | 7.5 | 2.9 | 0.4 | 1.7 | 0.2 | 1.3 | 3.0 | 2.8 | Strontium distribution ratio as a function of contact time [1, 10]: 7.1; Strontium distribution ratio as a function of contact time [1, 11]: 6.1; Cesium distribution ratio as a function of contact time [5, 10]: 2.5; Cesium distribution ratio as a function of contact time [5, 11]: 2.2
CCCCC(CCCC)CCCOc1c2cccc1Cc1cccc3c1OCCOCCOc1ccccc1OCCOCCOc1c(cccc1Cc1cccc(c1OCCCC(CCCC)CCCC)C3)C2 [MC-12B, 1,3-alternate-25,27-di(4-butyloctyl-1-oxy)calix[4]arenebenzocrown-6] | 7.7 | 0.03 | 6.7 | 0.02 | 6.3 | 6.3 | 2.5 | 0.4 | 1.3 | 0.2 | 1.1 | 3.3 | – | Strontium distribution ratio as a function of contact time [1, 10]: 6.9; Strontium distribution ratio as a function of contact time [1, 11]: 5.7; Cesium distribution ratio as a function of contact time [5, 10]: 2.1; Cesium distribution ratio as a function of contact time [5, 11]: 1.8
